According to ChEMBL document CHEMBL1124722, “Synthesis and anticonvulsant activity of 2-benzylglutarimides” (J Med Chem, 1990):
Calls of active or inactive are those of the source. No cut-off for these calls is given here.

Key:
[1] = test system: Mus musculus; test: Anticonvulsant activity against subcutaneous administered Metrazol induced seizures (scMET) after 4 hr; Not active up to 300 mg/kg; assay type: functional, organism-based; set-up: dose 300 mg/kg
[2] = test system: Mus musculus; test: Anticonvulsant activity against maximal electroshock induced seizures after 4 hr; Not active up to 300 mg/kg.; assay type: functional, organism-based; set-up: dose 300 mg/kg
[3] = test system: Mus musculus; test: (§1) The Neurologic toxicity by measuring rotarod test after 4 hr; Not active up to 300 mg/kg; assay type: organism-based; set-up: dose 300 mg/kg; details: in vivo
[4] = test system: Mus musculus; test: Anticonvulsant activity against subcutaneous administered Metrazol induced seizures (scMET) after 0.5 hr; Not active up to 300 mg/kg; assay type: functional, organism-based; set-up: dose 300 mg/kg
[5] = test system: Mus musculus; test: (§2) The Neurologic toxicity by measuring rotarod test after 0.5 h; Not active up to 300 mg/kg; assay type: organism-based; set-up: dose 300 mg/kg; details: in vivo
[6] = test system: Mus musculus; test: Anticonvulsant activity against maximal electroshock induced seizures (MES) after 0.5 h; Not active up to 300 mg/kg; assay type: functional, organism-based; set-up: dose 300 mg/kg
[7] = Protective index was calculated (TD50/ED50) in scMET assay in mice after intraperitoneal administration; assay type: functional
[8] = The cytotoxicity after intraperitoneal administration; assay type: organism-based; details: mouse, in vivo, ip
[9] = species: Mus musculus; test: Time of peak effect was determined for activity in MES; assay type: functional; set-up: unit not given here
[10] = test system: Mus musculus; test: The effective dose of compound was tested against subcutaneous administered Metrazol induced seizures after intraperitoneal administration; assay type: functional
[11] = test system: Mus musculus; test: The effective dose of compound was tested against maximal electroshock induced seizures after intraperitoneal administration; assay type: functional; details: ip
[12] = species: Mus musculus; test: Time of peak effect was determined for toxicity; assay type: organism-based; set-up: unit not given here; details: in vivo
[13] = test system: Mus musculus; test: Anticonvulsant activity against subcutaneous administered Metrazol induced seizures (scMET) after 0.5 hr at 100 mg/kg; Active; assay type: functional, organism-based; set-up: dose 100 mg/kg
[14] = Protective index was calculated (TD50/ED50) in MES assay in mice after intraperitoneal administration; assay type: functional
[15] = test system: Mus musculus; test: The Neurologic toxicity by measuring rotarod test after 0.5 hr at 300 mg/kg; Active; assay type: organism-based; set-up: dose 300 mg/kg; details: in vivo
[16] = test system: Mus musculus; test: Anticonvulsant activity against maximal electroshock induced seizures (MES) after 0.5 hr at 300 mg/kg; Active; assay type: functional, organism-based; set-up: dose 300 mg/kg
[17] = test system: Mus musculus; test: Anticonvulsant activity against subcutaneous administered Metrazol induced seizures (scMET) after 0.5 hr at 30 mg/kg; Active; assay type: functional, organism-based; set-up: dose 30 mg/kg
[18] = test system: Mus musculus; test: Anticonvulsant activity against subcutaneous administered Metrazol induced seizures (scMET) after 4 hr at 300 mg/kg; Active; assay type: functional, organism-based; set-up: dose 300 mg/kg
[19] = test system: Mus musculus; test: The Neurologic toxicity by measuring rotarod test after 4 hr at 300 mg/kg; Active; assay type: organism-based; set-up: dose 300 mg/kg; details: in vivo
[20] = test system: Mus musculus; test: Anticonvulsant activity against maximal electroshock induced seizures (MES) after 4 hr at 300 mg/kg; Active; assay type: functional, organism-based; set-up: dose 300 mg/kg
[21] = test system: Mus musculus; test: Anticonvulsant activity against subcutaneous administered Metrazol induced seizures (scMET) after 0.5 hr at 300 mg/kg; Active; assay type: functional, organism-based; set-up: dose 300 mg/kg
[22] = test system: Mus musculus; test: as §1; assay type: functional, organism-based; set-up: dose 300 mg/kg
[23] = test system: Mus musculus; test: as §2; assay type: functional, organism-based; set-up: dose 300 mg/kg
[24] = species: Mus musculus; test: Time of peak effect toxicity against maximal electroshock induced seizures; assay type: organism-based; details: in vivo
[25] = species: Mus musculus; test: Time of peak effect activity against maximal electroshock induced seizures; assay type: functional
[26] = test system: Mus musculus; test: The Neurologic toxicity by measuring rotarod test after 4 hr; No toxicity up to 300 mg/kg; assay type: organism-based; set-up: dose 300 mg/kg; details: in vivo

Question: For `O=C1CCC(Cc2ccc(Cl)c(Cl)c2)C(=O)N1` (stereo not given), which Activity [1] is on record?
Answer: The Activity was “inactive”.

Question: And the Activity [2]?
Answer: The Activity was “inactive”.

Question: And the Toxicity [3]?
Answer: The Toxicity was “Not Active”.

Question: What about the Activity [4] of the same molecule?
Answer: The Activity was “inactive”.

Question: What about the Toxicity [5] of the same molecule?
Answer: Its Toxicity is “Not Active”.

Question: What about the Activity [6] of the same molecule?
Answer: The Activity was “inactive”.

Question: Which results are given for `CN1C(=O)CCC(Cc2ccc(Cl)cc2)C1=O` (stereo not given)?
Answer: Activity [1]: inactive; Ratio [7]: 2.81; TD50 [8]: 348 mg/kg; Activity [2]: inactive; Toxicity [3]: Not Active; TPE [9]: 0.5; ED50 [10]: 124 mg/kg; ED50 [11]: 248 mg/kg; TPE [12]: 1; Activity [13]: Active; Ratio [14]: 1.4; Toxicity [15]: Active; Activity [16]: Active

Question: With `CN1C(=O)CCC(Cc2ccc(I)cc2)C1=O` (stereo not given) as the molecule, how does the Activity [17] read?
Answer: The Activity was “Active”.

Question: What about the Activity [2] of the same molecule?
Answer: Its Activity is “inactive”.

Question: What about the Toxicity [3] of the same molecule?
Answer: Its Toxicity is “Not Active”.

Question: And the Activity [18]?
Answer: The Activity was “Active”.

Question: And the Toxicity [5]?
Answer: The Toxicity was “Not Active”.

Question: And the Activity [6]?
Answer: The Activity was “inactive”.

Question: Which results are given for `CN1C(=O)CCC(Cc2ccccc2)C1=O` (stereo not given)?
Answer: Activity [1]: inactive; Activity [2]: inactive; Toxicity [3]: Not Active; Toxicity [5]: Not Active; Activity [6]: inactive

Question: What does the source list for `O=C1CCC(Cc2ccccc2Br)C(=O)N1` (stereo not given)?
Answer: Activity [1]: inactive; Activity [2]: inactive; Activity [4]: inactive; Toxicity [19]: Active; Activity [6]: inactive; Toxicity [15]: Active

Question: With `O=C1CCC(Cc2ccc(C(F)(F)F)cc2)C(=O)N1` (stereo not given) as the molecule, how does the Ratio [7] read?
Answer: The Ratio was 2.92.

Question: What about the TD50 [8] of the same molecule?
Answer: The TD50 was 349 mg/kg.

Question: And the TPE [9]?
Answer: Its TPE is 2.

Question: And the Activity [18]?
Answer: Its Activity is “Active”.

Question: And the Toxicity [19]?
Answer: The Toxicity was “Active”.

Question: What about the ED50 [10] of the same molecule?
Answer: The ED50 was 119 mg/kg.

Question: What about the ED50 [11] of the same molecule?
Answer: The ED50 was 126 mg/kg.

Question: And the Activity [20]?
Answer: The Activity was “Active”.

Question: What about the TPE [12] of the same molecule?
Answer: The TPE was 1.

Question: What about the Activity [13] of the same molecule?
Answer: The Activity was “Active”.

Question: And the Ratio [14]?
Answer: The Ratio was 2.76.

Question: And the Toxicity [15]?
Answer: Its Toxicity is “Active”.

Question: And the Activity [16]?
Answer: The Activity was “Active”.

Question: Which Activity [1] does the source give for `CN1C(=O)CCC(Cc2ccc(Br)cc2)C1=O` (stereo not given) here?
Answer: The Activity was “inactive”.

Question: What about the Ratio [7] of the same molecule?
Answer: Its Ratio is 3.72.

Question: And the TD50 [8]?
Answer: Its TD50 is 534 mg/kg.

Question: What about the Activity [2] of the same molecule?
Answer: The Activity was “inactive”.

Question: And the Toxicity [3]?
Answer: The Toxicity was “Not Active”.

Question: What about the TPE [9] of the same molecule?
Answer: The TPE was 1.

Question: And the Toxicity [5]?
Answer: The Toxicity was “Not Active”.

Question: What about the ED50 [10] of the same molecule?
Answer: Its ED50 is 143 mg/kg.

Question: And the ED50 [11]?
Answer: The ED50 was 162 mg/kg.

Question: And the TPE [12]?
Answer: Its TPE is 1.5.

Question: What about the Activity [13] of the same molecule?
Answer: The Activity was “Active”.

Question: And the Ratio [14]?
Answer: Its Ratio is 3.8.

Question: What about the Activity [16] of the same molecule?
Answer: The Activity was “Active”.

Question: With `O=C1CCC(Cc2ccc(F)cc2)C(=O)N1` (stereo not given) as the molecule, how does the Activity [1] read?
Answer: Its Activity is “inactive”.

Question: And the Activity [2]?
Answer: Its Activity is “inactive”.

Question: What about the Toxicity [3] of the same molecule?
Answer: The Toxicity was “Not Active”.

Question: What about the Activity [21] of the same molecule?
Answer: Its Activity is “Active”.

Question: And the Toxicity [15]?
Answer: Its Toxicity is “Active”.

Question: Which Activity [1] does the source give for `C[Si](C)(C)c1ccc(CC2CCC(=O)NC2=O)cc1` (stereo not given) here?
Answer: Its Activity is “inactive”.

Question: And the Toxicity [22]?
Answer: The Toxicity was “inactive”.

Question: What about the Activity [2] of the same molecule?
Answer: Its Activity is “inactive”.

Question: And the Toxicity [23]?
Answer: Its Toxicity is “inactive”.

Question: What about the Activity [4] of the same molecule?
Answer: The Activity was “inactive”.

Question: And the Activity [6]?
Answer: The Activity was “inactive”.

Question: Which Activity [1] does the source give for `CC(C)Oc1ccc(CC2CCC(=O)NC2=O)cc1` (stereo not given) here?
Answer: The Activity was “inactive”.

Question: And the Activity [2]?
Answer: Its Activity is “inactive”.

Question: What about the Activity [4] of the same molecule?
Answer: The Activity was “inactive”.

Question: What about the Toxicity [19] of the same molecule?
Answer: The Toxicity was “Active”.

Question: What about the Activity [6] of the same molecule?
Answer: The Activity was “inactive”.

Question: And the Toxicity [15]?
Answer: Its Toxicity is “Active”.

Question: Which Ratio [7] does the source give for `O=C1CCC(Cc2ccc(Br)cc2)C(=O)N1` (stereo not given) here?
Answer: The Ratio was 9.11.

Question: What about the Activity [17] of the same molecule?
Answer: The Activity was “Active”.

Question: And the TD50 [8]?
Answer: Its TD50 is 513 mg/kg.

Question: And the TPE [24]?
Answer: Its TPE is 1.

Question: And the TPE [25]?
Answer: Its TPE is 1.

Question: What about the Activity [18] of the same molecule?
Answer: Its Activity is “Active”.

Question: What about the ED50 [10] of the same molecule?
Answer: The ED50 was 56.3 mg/kg.

Question: And the ED50 [11]?
Answer: Its ED50 is 279 mg/kg.

Question: What about the Activity [20] of the same molecule?
Answer: Its Activity is “Active”.

Question: What about the Toxicity [26] of the same molecule?
Answer: Its Toxicity is “No toxicity up to 300 mg/kg”.

Question: And the Ratio [14]?
Answer: The Ratio was 1.84.

Question: What about the Toxicity [15] of the same molecule?
Answer: Its Toxicity is “Active”.

Question: And the Activity [16]?
Answer: Its Activity is “Active”.

Question: With `CN1C(=O)CCC(Cc2ccc(C(F)(F)F)cc2)C1=O` (stereo not given) as the molecule, how does the Toxicity [3] read?
Answer: The Toxicity was “Not Active”.

Question: What about the Activity [18] of the same molecule?
Answer: The Activity was “Active”.

Question: What about the Toxicity [5] of the same molecule?
Answer: Its Toxicity is “Not Active”.

Question: And the Activity [6]?
Answer: Its Activity is “inactive”.

Question: And the Activity [20]?
Answer: The Activity was “Active”.

Question: What about the Activity [21] of the same molecule?
Answer: Its Activity is “Active”.

Question: What does the source list for `CCCOc1ccc(CC2CCC(=O)NC2=O)cc1` (stereo not given)?
Answer: Activity [1]: inactive; Activity [2]: inactive; Activity [4]: inactive; Toxicity [19]: Active; Activity [6]: inactive; Toxicity [15]: Active

Question: Which Activity [1] does the source give for `O=C1CCC(Cc2ccc(-c3ccccc3)cc2)C(=O)N1` (stereo not given) here?
Answer: Its Activity is “inactive”.

Question: And the Activity [2]?
Answer: Its Activity is “inactive”.

Question: And the Toxicity [3]?
Answer: Its Toxicity is “Not Active”.

Question: And the Activity [4]?
Answer: The Activity was “inactive”.

Question: And the Toxicity [5]?
Answer: Its Toxicity is “Not Active”.

Question: And the Activity [6]?
Answer: Its Activity is “inactive”.
